Reference: US12728116B2, “Methods of treating multiple sclerosis” (Vanda Pharmaceuticals Inc., priority 2021, dated 2026)

Experiments:
[1] = system: adult subjects with relapsing MS; assay: Treatment-emergent adverse events (Safety Set); format: in vivo, human; conditions: for AESI effect on heart rate and rhythm (including hypotension) on Day 1: subjects with at least one AE, %: Day 1 (ponesimod dose 2 mg); for TEAE ALT increased, subjects / TEAE headache, subjects / TEAE nasopharyngitis, subjects / TEAE upper respiratory tract infection, subjects: ponesimod 20 mg, teriflunomide 14 mg; for AESI category Effect on heart rate and rhythm (including aypotension), % / AESI category Hepatobiliary disorders/Liver enzyme abnormality, % / AESI category Herpetic infection, % / AESI category Hypertension, % / AESI category Macular edema, % / AESI category Non-skin malignancy, % / AESI category Pulmonary events, % / AESI category Seizure, % / AESI category Skin malignancy, % / AESI category Infection, %: treatment-emergent AESI; for AESI category Infection, %: only if reported as serious or severe;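 for all read-outs here: safety Set comprises every randomized subject given one or more doses, analysed by the treatment actually received rather than the assigned arm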
Experimental: The Safety Set (SAF) included all randomized subjects who received at least one dose of study treatment. Subjects were analyzed based on actual treatment taken, not randomized treatment.

[2] = system: adult subjects with relapsing MS; assay: Premature treatment discontinuation; format: in vivo; conditions: for Subjects discontinued due to AEs or tolerability related reasons: ponesimod 20 mg, teriflunomide 14 mg
Experimental: A total of 1468 subjects were screened. Of those, 1133 subjects were randomized (567 to ponesimod 20 mg and 566 to teriflunomide 14 mg) across 162 sites in 28 countries, and 1131 subjects received at least one dose of study drug. The disposition of subjects is summarized in Table 1 and a summary of reasons (primary reason) for treatment discontinuation are shown in Table 2. Overall treatment and study discontinuation were balanced across both treatment arms. A total of 6.5% and 2.5% of the subjects discontinued due to AEs or tolerability related reasons in ponesimod 20 mg and teriflunomide 14 mg, respectively, while 1.9% and 4.3% discontinued due to efficacy related reasons. There were 2 deaths reported during the study—both on teriflunomide 14 mg.

[3] = Safety Set, listed as ponesimod
[4] = treatment-emergent, Safety Set, listed as ponesimod
[5] = Safety Set, listed as teriflunomide
[6] = treatment-emergent, Safety Set, listed as teriflunomide

**Q.** Which results are given for `CCC/N=C1\S/C(=C\c2ccc(OC[C@H](O)CO)c(Cl)c2)C(=O)N1c1ccccc1C` [Ponesimod, (R)-5-[3-chloro-4-(2,3-dihydroxy-propoxy)-benz[Z]ylidene]-2-([Z]-propylimino)-3-o-tolyl-thiazolidin-4-one]?
**A.** AESI effect on heart rate and rhythm (including hypotension) on Day 1: subjects with at least one AE, % ([1]; Safety Set): (2.1) %; AESI effect on heart rate and rhythm (including hypotension) on Day 1: subjects with at least one AE, % [1, 3]: 2.1%; Day 1 AESI PT Atrioventricular block first degree, % ([1]; Day 1, Safety Set): (0.5) %; Day 1 AESI PT Bradycardia, % ([1]; Day 1, Safety Set): (0.7) %; Day 1 AESI PT Bundle branch block left, % ([1]; Day 1, Safety Set): (0.2) %; Day 1 AESI PT Bundle branch block right, % ([1]; Day 1, Safety Set): (0.2) %; Day 1 AESI PT Defect conduction intraventricular, % ([1]; Day 1, Safety Set): (0.4) %; Day 1 AESI PT Sinus arrhythmia, % ([1]; Day 1, Safety Set): (0.2) %; Day 1 AESI PT Sinus bradycardia, % ([1]; Day 1, Safety Set): (0.2) %; TEAE ALT increased, subjects [1]: 19.5%; TEAE headache, subjects [1]: 11.5%; TEAE nasopharyngitis, subjects [1]: 19.3%; TEAE upper respiratory tract infection, subjects [1]: 10.6%; AESI category Effect on heart rate and rhythm (including aypotension), % ([1]; Safety Set): (5.1) %; AESI category Hepatobiliary disorders/Liver enzyme abnormality, % ([1]; Safety Set): (25.7) %; AESI category Herpetic infection, % ([1]; Safety Set): (4.8) %; AESI category Hypertension, % ([1]; Safety Set): (10.1) %; AESI category Macular edema, % ([1]; Safety Set): (1.1) %; AESI category Non-skin malignancy, % ([1]; Safety Set): (0.2) %; AESI category Pulmonary events, % ([1]; Safety Set): (8.0) %; AESI category Seizure, % ([1]; Safety Set): (1.4) %; AESI category Skin malignancy, % ([1]; Safety Set): (0.9) %; AESI category Hepatobiliary disorders/Liver enzyme abnormality, % [1, 3]: 25.7%; AESI category Hypertension, % [1, 3]: 10.1%; AESI category Pulmonary events, % [1, 3]: 8.0%; AESI category Infection, % ([1]; Safety Set): (1.6) %; AEs leading to premature discontinuation, SOC Blood and lymphatic system disorders, % ([1]; treatment-emergent, Safety Set): (0.5) %; AEs leading to premature discontinuation, SOC Cardiac disorders, % ([1]; treatment-emergent, Safety Set): (0.2) %; AEs leading to premature discontinuation, SOC Eye disorders, % ([1]; treatment-emergent, Safety Set): (0.9) %; AEs leading to premature discontinuation, SOC Gastrointestinal disorders, % ([1]; treatment-emergent, Safety Set): (0.7) %; AEs leading to premature discontinuation, SOC General disorders and administration site conditions, % ([1]; treatment-emergent, Safety Set): (0.5) %; AEs leading to premature discontinuation, SOC Hepatobiliary disorders, % ([1]; treatment-emergent, Safety Set): (0.5) %; AEs leading to premature discontinuation, SOC Investigations, % ([1]; treatment-emergent, Safety Set): (2.1) %; AEs leading to premature discontinuation, SOC Musculoskeletal and connective tissue disorders, % ([1]; treatment-emergent, Safety Set): (0.2) %; AEs leading to premature discontinuation, SOC Neoplasms benign, malignant and unspecified (incl cysts and polyps), % ([1]; treatment-emergent, Safety Set): (0.2) %; AEs leading to premature discontinuation, SOC Nervous system disorders, % ([1]; treatment-emergent, Safety Set): (0.4) %; AEs leading to premature discontinuation, SOC Pregnancy, puerperium and perinatal conditions, % ([1]; treatment-emergent, Safety Set): (0.5) %; AEs leading to premature discontinuation, SOC Psychiatric disorders, % ([1]; treatment-emergent, Safety Set): (0.2) %; AEs leading to premature discontinuation, SOC Respiratory, thoracic and mediastinal disorders, % ([1]; treatment-emergent, Safety Set): (1.2) %; AEs leading to premature discontinuation, SOC Skin and subcutaneous tissue disorders, % ([1]; treatment-emergent, Safety Set): (0.2) %; AEs leading to premature discontinuation, SOC Social circumstances, % ([1]; treatment-emergent, Safety Set): (0.4) %; AEs leading to premature discontinuation, SOC Vascular disorders, % ([1]; treatment-emergent, Safety Set): (0.5) %; Subjects with at least one AE leading to study drug discontinuation, % ([1]; treatment-emergent, Safety Set): (8.7) %; Subjects with at least one AE, % ([1]; treatment-emergent, Safety Set): (88.8) %; Subjects with at least one Drug-Related AE, % ([1]; treatment-emergent, Safety Set): (49.2) %; Subjects with at least one Serious AE, % ([1]; treatment-emergent, Safety Set): (8.7) %; Subjects with at least one Severe AE, % ([1]; treatment-emergent, Safety Set): (6.9) %; Subjects with at least one AE leading to study drug discontinuation, % [1, 4]: 8.7%; Subjects with at least one AE, % [1, 4]: 88.8%; Subjects with at least one Serious AE, % [1, 4]: 8.7%; Premature discontinuation: Physician decision, Adverse event, % ([2]; Safety Set): (5.1) %; Premature discontinuation: Subject decision, Tolerability related, % ([2]; Safety Set): (1.4) %; Subjects discontinued due to AEs or tolerability related reasons [2]: 6.5%

**Q.** What does the source list for `C/C(O)=C(\C#N)C(=O)Nc1ccc(C(F)(F)F)cc1` [Teriflunomide, reference compound]?
**A.** AESI effect on heart rate and rhythm (including hypotension) on Day 1: subjects with at least one AE, % ([1]; Safety Set): (0.4) %; AESI effect on heart rate and rhythm (including hypotension) on Day 1: subjects with at least one AE, % [1, 5]: 0.4%; Day 1 AESI PT Electrocardiogram QT prolonged, % ([1]; Day 1, Safety Set): (0.2) %; Day 1 AESI PT Presyncope, % ([1]; Day 1, Safety Set): (0.2) %; TEAE ALT increased, subjects [1]: 9.4%; TEAE headache, subjects [1]: 12.7%; TEAE nasopharyngitis, subjects [1]: 16.8%; TEAE upper respiratory tract infection, subjects [1]: 10.4%; AESI category Effect on heart rate and rhythm (including aypotension), % ([1]; Safety Set): (4.2) %; AESI category Hepatobiliary disorders/Liver enzyme abnormality, % ([1]; Safety Set): (14.5) %; AESI category Herpetic infection, % ([1]; Safety Set): (4.8) %; AESI category Hypertension, % ([1]; Safety Set): (9.0) %; AESI category Macular edema, % ([1]; Safety Set): (0.2) %; AESI category Non-skin malignancy, % ([1]; Safety Set): (0.2) %; AESI category Pulmonary events, % ([1]; Safety Set): (2.7) %; AESI category Seizure, % ([1]; Safety Set): (0.2) %; AESI category Skin malignancy, % ([1]; Safety Set): (0.2) %; AESI category Hepatobiliary disorders/Liver enzyme abnormality, % [1, 5]: 14.5%; AESI category Hypertension, % [1, 5]: 9.0%; AESI category Pulmonary events, % [1, 5]: 2.7%; AESI category Infection, % ([1]; Safety Set): (0.9) %; AEs leading to premature discontinuation, SOC Blood and lymphatic system disorders, % ([1]; treatment-emergent, Safety Set): (0.4) %; AEs leading to premature discontinuation, SOC Cardiac disorders, % ([1]; treatment-emergent, Safety Set): (0.4) %; AEs leading to premature discontinuation, SOC Gastrointestinal disorders, % ([1]; treatment-emergent, Safety Set): (0.7) %; AEs leading to premature discontinuation, SOC General disorders and administration site conditions, % ([1]; treatment-emergent, Safety Set): (0.4) %; AEs leading to premature discontinuation, SOC Hepatobiliary disorders, % ([1]; treatment-emergent, Safety Set): (0.4) %; AEs leading to premature discontinuation, SOC Investigations, % ([1]; treatment-emergent, Safety Set): (1.8) %; AEs leading to premature discontinuation, SOC Musculoskeletal and connective tissue disorders, % ([1]; treatment-emergent, Safety Set): (0.2) %; AEs leading to premature discontinuation, SOC Neoplasms benign, malignant and unspecified (incl cysts and polyps), % ([1]; treatment-emergent, Safety Set): (0.2) %; AEs leading to premature discontinuation, SOC Nervous system disorders, % ([1]; treatment-emergent, Safety Set): (0.7) %; AEs leading to premature discontinuation, SOC Pregnancy, puerperium and perinatal conditions, % ([1]; treatment-emergent, Safety Set): (0.5) %; AEs leading to premature discontinuation, SOC Psychiatric disorders, % ([1]; treatment-emergent, Safety Set): (0.2) %; AEs leading to premature discontinuation, SOC Reproductive system and breast disorders, % ([1]; treatment-emergent, Safety Set): (0.2) %; AEs leading to premature discontinuation, SOC Skin and subcutaneous tissue disorders, % ([1]; treatment-emergent, Safety Set): (0.4) %; AEs leading to premature discontinuation, SOC Social circumstances, % ([1]; treatment-emergent, Safety Set): (0.2) %; AEs leading to premature discontinuation, SOC Surgical and medical procedures, % ([1]; treatment-emergent, Safety Set): (0.2) %; Subjects with at least one AE leading to study drug discontinuation, % ([1]; treatment-emergent, Safety Set): (6.0) %; Subjects with at least one AE, % ([1]; treatment-emergent, Safety Set): (88.2) %; Subjects with at least one Drug-Related AE, % ([1]; treatment-emergent, Safety Set): (42.0) %; Subjects with at least one Fatal AE, % ([1]; treatment-emergent, Safety Set): (0.4) %; Subjects with at least one Serious AE, % ([1]; treatment-emergent, Safety Set): (8.1) %; Subjects with at least one Severe AE, % ([1]; treatment-emergent, Safety Set): (4.6) %; Subjects with at least one AE leading to study drug discontinuation, % [1, 6]: 6.0%; Subjects with at least one AE, % [1, 6]: 88.2%; Subjects with at least one Serious AE, % [1, 6]: 8.1%; Premature discontinuation: Death, % ([2]; Safety Set): (0.4) %; Premature discontinuation: Physician decision, Adverse event, % ([2]; Safety Set): (1.6) %; Premature discontinuation: Subject decision, Tolerability related, % ([2]; Safety Set): (0.9) %; Subjects discontinued due to AEs or tolerability related reasons [2]: 2.5%
